Square brackets hold non-standard residues; d marks the D form. Peptide text beside a SMILES is read from it. Arg(Me) = CNC(=N)NCCC[C@H](N)C(=O)O; d3Pal = N[C@H](Cc1cccnc1)C(=O)O; d4Pal = N[C@H](Cc1ccncc1)C(=O)O; azaGly = NNC(=O)O
Key:
Type in all cases: functional, Homo sapiens
Conditions in all cases: Homo sapiens, read-out: Cell Viability; for viability at 10 µM: Concentration 10 uM; for viability at 1 µM: Concentration 1 uM
Colon cancer organoid [1] = experiment: Targeting of F14 CAF-induced therapy resistance in O14 CRC organoid-stroma co-culture. Cell viability is reported without Gefitinib.
Colon cancer organoid [2] = experiment: Targeting of F14 CAF-induced therapy resistance in O14 CRC organoid-stroma co-culture. Cell viability is reported with Gefitinib.
Colon cancer organoid [3] = experiment: Targeting of F14 CAF-induced therapy resistance in O23 CRC organoid-stroma co-culture. Cell viability is reported without Gefitinib.
Colon cancer organoid [4] = experiment: Targeting of F14 CAF-induced therapy resistance in O23 CRC organoid-stroma co-culture. Cell viability is reported with Gefitinib.
Colon cancer organoid [5] = experiment: Targeting of F14 CAF-induced therapy resistance in O23 CRC organoid-stroma co-culture. Cell viability is reported with SN-38.

Row | Structure (SMILES) | viability at 10 µM (Colon cancer organoid [1]) [%] | viability at 10 µM (Colon cancer organoid [2]) [%] | viability at 10 µM (Colon cancer organoid [3]) [%] | viability at 10 µM (Colon cancer organoid [4]) [%] | viability at 10 µM (Colon cancer organoid [5]) [%] | viability at 1 µM (Colon cancer organoid [1]) [%] | viability at 1 µM (Colon cancer organoid [2]) [%] | viability at 1 µM (Colon cancer organoid [3]) [%] | viability at 1 µM (Colon cancer organoid [4]) [%] | viability at 1 µM (Colon cancer organoid [5]) [%]
1 | CNC(=O)c1cc(C(=O)N[C@H]2[C@@H]3COC[C@@H]32)cc2c1O[C@H](CF)[C@H]2c1ccccc1 [GSK973] | 99.3 | 23.6 | 102 | 58.5 | 46.5 |  |  |  |  | 
2 | O=C(O)c1ccc(-c2c[nH]c3ncc(-c4ccccc4)cc23)cc1C1CCCC1 [GSK-650394] | 104 | 65 | 136 | 93.5 | 82.6 |  |  |  |  | 
3 | Cc1c(Oc2ccc(F)cc2)c(OC(C)C)nn1-c1ccc(C2CC2)cn1 [IPP/CNRS-A019] | 84.4 | 50.2 | 147 | 86.4 | 75.2 |  |  |  |  | 
4 | COCCc1ccc(-c2c(C)nc3c(N4CCOCC4)ccnn23)cn1 [JNJ-42396302] | 122 | 65.9 | 143 | 97 | 70.4 |  |  |  |  | 
5 | COc1nc2ccc([C@@](O)(c3ccccc3)C3CCN(C(C)=O)CC3)cc2c(Cl)c1Cc1ccc(-n2cccn2)cc1 [JNJ-54119936] | 146 | 45.8 | 106 | 64.3 | 62.6 |  |  |  |  | 
6 | CC(=O)Nc1ncc(CN2CCC[C@H](Cc3cc(C)nc(C)c3)C2)s1 [JNJ-65355394] | 106 | 47.9 | 103 | 88.8 | 44.3 |  |  |  |  | 
7 | CC(=O)Nc1nc(CN2CCC[C@H](Cc3cc(C)nc(C)c3)C2)cs1 [JNJ-73924149] | 109 | 46.2 | 125 | 79.3 | 79.9 |  |  |  |  | 
8 | N#CN1CC[C@@H](C(=O)Nc2nc3c(s2)CN(C(=O)CN=[N+]=[N-])CC3)C1 [JYQ88] | 137 | 34.4 | 76.5 | 45.5 | 78.4 |  |  |  |  | 
9 | CNC(=N)NCCC[C@H](NC(=O)[C@H](CC(C)C)NC(=O)NNC(=O)[C@H](Cc1ccccc1)NC(=O)[C@H](CO)NC(=O)[C@H](CC(N)=O)NC(=O)[C@@H](Cc1ccncc1)NC(=O)[C@H](N)Cc1ccc(O)cc1)C(=O)N[C@@H](Cc1ccccc1)C(N)=O [KISS1-305] (H-[dY][d4Pal]NSF[azaGly]L[Arg(Me)]F-NH2) | 119 | 52.8 | 97.6 | 66.9 | 61.3 |  |  |  |  | 
10 | CNC(=N)NCCC[C@H](NC(=O)[C@H](CC(C)C)NC(=O)NNC(=O)[C@H](Cc1ccccc1)NC(=O)[C@H](CO)NC(=O)[C@H](CC(N)=O)NC(=O)[C@@H](Cc1cccnc1)NC(=O)[C@H](N)Cc1ccc(O)cc1)C(=O)NCC(N)=O [KISS1-543] (H-[dY][d3Pal]NSF[azaGly]L[Arg(Me)]G-NH2) | 103 | 62.9 | 93.8 | 49.7 | 71.6 |  |  |  |  | 
11 | CCS(=O)(=O)Nc1ccc(Oc2ccc(F)cc2F)c(-c2cn(C)c(=O)c3[nH]ccc23)c1 [MIVEBRESIB] | 5.68 | 1.95 | 37.5 | 29.2 | 25.4 |  |  |  |  | 
12 | CN([C@@H]1CCc2c(CC(=O)O)c3ccccc3n2C1)S(=O)(=O)c1ccc(F)cc1 [MK-7246] | 88.6 | 43.4 | 79.7 | 46.3 | 76.2 |  |  |  |  | 
13 | C[C@@H]1CN(c2cc(-c3nn(C)c4ccc(OC5(C)CC5)cc34)ncn2)C[C@H](C)O1 [MLi-2-NC] | 77.2 | 28.6 | 107 | 40.9 | 62.4 |  |  |  |  | 
14 | C[C@@H]1CN(c2cc(-c3n[nH]c4ccc(OC5(C)CC5)cc34)ncn2)C[C@H](C)O1 [MLi-2] |  |  |  |  |  | 113 | 27.4 | 102 | 41 | 46.4
15 | O=S(=O)(NC1CCC(c2cc(F)ccc2F)(S(=O)(=O)c2ccc(Cl)cc2)CC1)C(F)(F)F (stereo not given) [MRK-560] |  |  |  |  |  | 73.7 | 32.8 | 130 | 60.6 | 64.4
16 | CC(=O)c1c(NS(C)(=O)=O)c2cc(-c3ccc(Cl)cc3)c(-c3ccc(Cl)cc3Cl)nc2n(C)c1=O [MRL-CB1-NC] | 148 | 53.2 | 92.4 | 48.2 | 60.4 |  |  |  |  | 
17 | Cc1ccc(-c2cnc([C@@]3(O)CC[C@H](C(=O)O)C(C)(C)C3)s2)cc1Nc1cccc(C(F)(F)F)n1 [MRL-SYKi-NC] | 110 | 48.6 | 139 | 51.3 | 73.3 |  |  |  |  | 
18 | Cc1cc(Nc2nccc(C)n2)cc(-c2cnc([C@@]3(O)CC[C@H](C(=O)O)C(C)(C)C3)s2)c1 [MRL-SYKi] |  |  |  |  |  | 137 | 32.9 | 127 | 63.4 | 81.4

Row | Structure (SMILES) | viability at 10 µM (Colon cancer organoid [1]) [%] | viability at 10 µM (Colon cancer organoid [2]) [%] | viability at 10 µM (Colon cancer organoid [3]) [%] | viability at 10 µM (Colon cancer organoid [4]) [%] | viability at 10 µM (Colon cancer organoid [5]) [%] | viability at 1 µM (Colon cancer organoid [1]) [%] | viability at 1 µM (Colon cancer organoid [2]) [%] | viability at 1 µM (Colon cancer organoid [3]) [%] | viability at 1 µM (Colon cancer organoid [4]) [%] | viability at 1 µM (Colon cancer organoid [5]) [%]
19 | COc1cc(C(=O)O)ncc1C#Cc1ccccc1NS(=O)(=O)c1cccc2c(N(C)C)ccnc12 [MSC-0516] | 117 | 45.9 | 131 | 47.7 | 79.4 |  |  |  |  | 
20 | FC(F)(F)c1ccc2c(c1)nc(-c1cccnc1)n2C1CC1 [MSD-CYP11B2-Negative-control] | 65.1 | 32.7 | 150 | 69.7 | 92.9 |  |  |  |  | 
21 | CC(C)(O)c1cncc(-c2nc3ccc(F)cc3n2C2CC2)c1 [MSD-CYP11B2] | 107 | 39 | 144 | 79.5 | 94.9 |  |  |  |  | 
22 | N#CC1(c2ccccn2)CCN(Cc2cc(C(=O)N3CCCC3)c(=O)n3ccccc23)CC1 [MSD-M1PAM-NC] | 93.4 | 35.2 | 136 | 81.2 | 63.2 |  |  |  |  | 
23 | N#CC1(c2ccccn2)CCN(Cc2cc(C(=O)O)c(=O)n3ccccc23)CC1 [MSD-M1PAM] | 84.9 | 37 | 118 | 64.3 | 71.9 |  |  |  |  | 
24 | CC(=O)Nc1c(C(C)=O)c(=O)n(C)c2nc(-c3ccc(Cl)cc3Cl)c(-c3ccc(Cl)cc3)cc12 [NAPHTHYRIDINONE] | 119 | 48.1 | 109 | 58.3 | 81.5 |  |  |  |  | 
25 | CO[C@@H](C)c1c(Nc2ccc([C@@H](N(C)C(=O)C3CCS(=O)(=O)CC3)C(F)(F)F)cc2)cnc2cc(Cl)nn12 [NVS-MALT1-C] | 84.5 | 34.3 | 119 | 70.3 | 82.8 |  |  |  |  | 
26 | CO[C@@H](C)c1c(Nc2ccc([C@H](N(C)C(=O)C3CCS(=O)(=O)CC3)C(F)(F)F)cc2)cnc2cc(Cl)nn12 [NVS-MALT1] | 106 | 36.8 | 226 | 60.9 | 89.1 |  |  |  |  | 
27 | Nc1nc(NCc2ccccc2)nc(-c2ccccc2CO)n1 [Ogerin] | 123 | 26.8 | 222 | 71.3 | 106 |  |  |  |  | 
28 | CN(c1ccnc(CNc2nc(Nc3ccc4c(c3)CC(=O)N4)ncc2C(F)(F)F)n1)S(C)(=O)=O [PF-00911705] |  |  |  |  |  | 87 | 48 | 87.4 | 34.6 | 73.5
29 | CC(=O)NCC(=O)N1[C@@H]2CC[C@H]1c1ccc(Nc3ncc(C(F)(F)F)c(NC4CCC4)n3)cc12 [PF-03814735] | 14.8 | 4.93 | 33.7 | 25.7 | 48.4 |  |  |  |  | 
30 | COc1ccc2cc(OCC3(C(=O)O)CN(C(=O)c4ccc(F)cc4)C3)ccc2c1 [PF-04418948] |  |  |  |  |  | 141 | 43 | 142 | 40.3 | 81.3
31 | O=C(c1ccc(F)cc1)N1CC(COc2ccc(Br)cc2)(C(=O)O)C1 [PF-04475866] |  |  |  |  |  | 159 | 36.4 | 118 | 66.8 | 85.2
32 | C[C@H](c1ccc(F)cc1)N(Cc1cccc(C(=O)O)c1)C(=O)c1cnc2ccccc2c1 [PF-05105679] | 126 | 61.2 | 104 | 45.6 | 98.3 |  |  |  |  | 
33 | C[C@H](c1ccc(F)cc1)N(Cc1ccc(Cl)c(C(=O)O)c1)C(=O)c1cnc2ccccc2c1 [PF-05257137] | 84 | 51.5 | 81.5 | 41.2 | 93.8 |  |  |  |  | 
34 | Cc1noc(C)c1-c1cnc2c(-c3ccc(C(=O)O)cc3)cn([C@@H](C)c3ccccn3)c2c1 [PLX-51107] | 17.8 | 6.08 | 109 | 78.8 | 62.8 |  |  |  |  | 
35 | Cn1cc(CNCC2CCN(c3ncc(C(=O)NO)cn3)CC2)c2ccccc21 [QUISINOSTAT] | 0.685 | 0.22 | 11.7 | 6.71 | 1.67 |  |  |  |  | 
36 | O=C(CCCCCCNC(=O)c1cnc(N(c2ccccc2)c2ccccc2)nc1)NO [RICOLINOSTAT] | 141 | 83 | 108 | 81.3 | 43.7 |  |  |  |  | 

Reference: ChEMBL document CHEMBL5608113, “Targeting of CAF-induced therapy resistance in CRC organoid-stroma co-cultures” (2024)
